This note sets out measurements from patent publication US10562909B2, “Fused quadracyclic compounds, compositions and uses thereof” (Tabomedex Biosciences, LLC, priority 2016, dated 2020).

Chain of MAPKAPK2 (P49137 whole entry, species assumed): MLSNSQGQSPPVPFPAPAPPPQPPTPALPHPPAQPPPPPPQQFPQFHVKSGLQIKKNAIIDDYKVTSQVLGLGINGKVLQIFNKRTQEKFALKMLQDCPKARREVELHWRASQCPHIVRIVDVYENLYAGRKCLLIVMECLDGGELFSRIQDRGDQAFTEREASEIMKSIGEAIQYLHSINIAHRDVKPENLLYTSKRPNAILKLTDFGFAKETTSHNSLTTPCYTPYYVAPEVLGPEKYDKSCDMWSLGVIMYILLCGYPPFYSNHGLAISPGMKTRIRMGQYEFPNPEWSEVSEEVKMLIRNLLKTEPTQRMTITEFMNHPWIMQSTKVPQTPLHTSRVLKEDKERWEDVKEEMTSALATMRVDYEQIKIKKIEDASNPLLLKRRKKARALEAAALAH

This assay has as its target MAPKAPK2 (Homo sapiens, UniProt P49137). Description: MK2 Enzymatic Assay. The assay is classed as biochemical. Conditions: 0.5 nM MAPKAPK2, 3 μM ATP, 2 μM Ser/Thr4 peptide, 23° C., values given as concentration bins. In outline: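 MAPKAPK2 (2× stock 1 nM) and peptide substrate (2× 4 μM) were preincubated 20 min, then started with ATP (2× stock 6 μM) for 120 min. After 120 min development, coumarin/fluorescein emission ratio gave percent phosphorylation against 0% and 100% phosphopeptide controls.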
In general, IC50 refers to the concentration that gives 50% inhibition. The low end stands for greater potency in that assay, the high end for weaker potency in that assay. `CNC[C@H]1CCN(c2ccc3c(c2)Cn2cc(-c4ccc(F)cc4)cc2-c2nccn2-3)C1` [Compound 348, (R)-1-(1-(12-(4-fluorophenyl)-9H-benzo[e]imidazo[2,1-c]pyrrolo[1,2-a][1,4]diazepin-7-yl)pyrrolidin-3-yl)-N-methylmethanamine]: the IC50 was < 50 nM.

As to `CNC[C@@H]1CCN(c2ccc3c(c2)Cn2cc(-c4ccc(C#N)cc4)cc2-c2ncnn2-3)C1` [Compound 262, (S)-4-(7-(3-((methylamino)methyl)pyrrolidin-1-yl)-9H-benzo[e]pyrrolo[1,2-a][1,2,4]triazolo[5,1-c][1,4]diazepin-12-yl)benzonitrile], the IC50 was < 50 nM.

In the case of `CN(C)C[C@@H]1CN(c2ccc3c(c2)Cn2cc(-c4ccc(C#N)cc4)cc2-c2nccn2-3)C[C@H]1O` [Compound 138, 4-(7-((3R,4S)-3-((dimethylamino)methyl)-4-hydroxypyrrolidin-1-yl)-9H-benzo[e]imidazo[2,1-c]pyrrolo[1,2-a][1,4]diazepin-12-yl)benzonitrile], the IC50 is < 50 nM.

On to `CNCC1CN(c2ccc3c(n2)Cn2cc(-c4ccc(C#N)cc4)cc2-c2nccn2-3)C1` [Compound 295, 4-(7-(3-((methylamino)methyl)azetidin-1-yl)-9H-imidazo[2,1-c]pyrido[3,2-e]pyrrolo[1,2-a] [1,4]diazepin-12-yl)benzonitrile], for which the IC50 is < 50 nM.

`CN1CC2(CCN(c3ccc4c(c3)Cn3cc(-c5ccc(F)cc5)cc3-c3ncnn3-4)C2)C1` [Compound 412, 12-(4-fluorophenyl)-7-(2-methyl-2,6-diazaspiro[3.4]octan-6-yl)-9H-benzo[e]pyrrolo[1,2-a][1,2,4]triazolo[5,1-c][1,4]diazepine]: the IC50 is < 50 nM.

Turning to `O[C@H]1CN(c2ccc3c(c2)Cn2cc(-c4ccc(F)cc4)cc2-c2nccn2-3)C[C@@H]1CNC1CC1` [Compound 473, (3R,4S)-4-((cyclopropylamino)methyl)-1-(12-(4-fluorophenyl)-9H-benzo[e]imidazo[2,1-c]pyrrolo[1,2-a][1,4]diazepin-7-yl)pyrrolidin-3-ol], the IC50 is < 50 nM.

The molecule `OC[C@H]1CN(c2ccc3c(c2)Cn2cc(-c4ccc(F)cc4)cc2-c2nccn2-3)C[C@@H]1O` [Compound 484, (3R,4R)-1-(12-(4-fluorophenyl)-9H-benzo[e]imidazo[2,1-c]pyrrolo[1,2-a][1,4]diazepin-7-yl)-4-(hydroxymethyl)pyrrolidin-3-ol] returned an IC50 of 50 to 100 nM.

The molecule `C[C@@H](CO)N(C)C1CCN(c2ccc3c(c2)Cn2cc(-c4ccc(C#N)cc4)cc2-c2nncn2-3)CC1` [Compound 104, (S)-4-(7-(4-((1-hydroxypropan-2-yl)(methyl)amino)piperidin-1-yl)-9H-benzo[e]pyrrolo[1,2-a][1,2,4]triazolo[3,4-c][1,4]diazepin-12-yl)benzonitrile] gave an IC50 of 100 to 200 nM.

Take `C[C@H](CO)NC[C@H]1CCN(c2ccc3c(c2)Cn2cc(-c4ccc(F)cc4)cc2-c2ncnn2-3)C1` [Compound 420, (R)-2-((((R)-1-(12-(4-fluorophenyl)-9H-benzo[e]pyrrolo[1,2-a][1,2,4]triazolo[5,1-c][1,4]diazepin-7-yl)pyrrolidin-3-yl)methyl)amino)propan-1-ol]: the IC50 was < 50 nM.

In the case of `N#Cc1ccc(-c2cc3n(c2Cl)Cc2cc(N4CC[C@@H](CN)C4)ccc2-n2cnnc2-3)cc1` [Compound 169, (S)-4-(7-(3-(aminomethyl)pyrrolidin-1-yl)-11-chloro-9H-benzo[e]pyrrolo[1,2-a][1,2,4]tri-azolo[3,4-c][1,4]diazepin-12-yl)benzonitrile], the IC50 was < 50 nM.

Turning to `CNCC1CCN(c2ccc3c(c2)Cn2cc(-c4ccc(F)cc4)cc2-c2nccn2-3)C1` (centres unmarked) [Compound 342, 1-(1-(12-(4-fluorophenyl)-9H-benzo[e]imidazo[2,1-c]pyrrolo[1,2-a][1,4]diazepin-7-yl)pyrrolidin-3-yl)-N-methylmethanamine], the IC50 is < 50 nM.

For the molecule `CN(C)C[C@@H]1CN(c2ccc3c(c2)Cn2cc(-c4ccc(F)cc4)cc2-c2cnnn2-3)C[C@H]1O` [Compound 511, (3S,4R)-4-((dimethylamino)methyl)-1-(5-(4-fluorophenyl)-8H-benzo[e]pyrrolo[1,2-a][1,2,3]triazolo[5,1-c][1,4]diazepin-10-yl)pyrrolidin-3-ol], the IC50 was < 50 nM.

For `OC[C@@H]1CNC[C@H]1Nc1ccc2c(c1)Cn1cc(-c3ccc(F)cc3)cc1-c1nccn1-2` (relative stereo) [Compound 495, (Trans-4-((12-(4-fluorophenyl)-9H-benzo[e]imidazo[2,1-c]pyrrolo[1,2-a][1,4]diazepin-7-yl)amino)pyrrolidin-3-yl)methanol], the IC50 was 100 to 200 nM.

With `CN(C)C[C@@H]1CN(c2ccc3c(n2)Cn2cc(-c4ccc(C#N)cc4)cc2-c2nccn2-3)C[C@H]1O` [Compound 307, 4-(7-((3R,4S)-3-((dimethylamino)methyl)-4-hydroxypyrrolidin-1-yl)-9H-imidazo[2,1-c]pyrido[3,2-e]pyrrolo[1,2-a][1,4]diazepin-12-yl)benzonitrile], the IC50 was < 50 nM.

The molecule `CN(C)[C@H]1CN(c2ccc3c(n2)Cn2cc(-c4ccc(C#N)cc4)cc2-c2nccn2-3)C[C@@H]1O` [Compound 301, 4-(7-((3S,4S)-3-(dimethylamino)-4-hydroxypyrrolidin-1-yl)-9H-imidazo[2,1-c]pyrido[3,2-e]pyrrolo[1,2-a][1,4]diazepin-12-yl)benzonitrile] had an IC50 of 100 to 200 nM.

Molecule `OC[C@@H]1CN(c2ccc3c(c2)Cn2cc(-c4ccc(F)cc4)cc2-c2nccn2-3)C[C@H]1O` [Compound 485, (3S,4S)-1-(12-(4-fluorophenyl)-9H-benzo[e]imidazo[2,1-c]pyrrolo[1,2-a][1,4]diazepin-7-yl)-4-(hydroxymethyl)pyrrolidin-3-ol] had an IC50 of 100 to 200 nM.

For the molecule `C[C@@H](CO)NC[C@H]1CCN(c2ccc3c(n2)Cn2cc(-c4ccc(F)cc4)cc2-c2nccn2-3)C1` [Compound 437, (S)-2-((((R)-1-(12-(4-fluorophenyl)-9H-imidazo[2,1-c]pyrido[3,2-e]pyrrolo[1,2-a][1,4]diazepin-7-yl)pyrrolidin-3-yl)methyl)amino)propan-1-ol], the IC50 was < 50 nM.
